≈ marks a conversion by molar mass, not a printed value. Calls of active or inactive are those of the source. The rule behind the calls is not given here.
Experiments:
Streptococcus pneumoniae [1] = assay: Antibacterial activity against Streptococcus pneumoniae Mef 1790; format: functional
Streptococcus pneumoniae [2] = assay: Antibacterial activity against Streptococcus pneumoniae Mef 2382; format: functional
Streptococcus pneumoniae [3] = assay: Antibacterial activity against Streptococcus pneumoniae Mef 2880; format: functional
Streptococcus pneumoniae [4] = assay: Antibacterial activity against Streptococcus pneumoniae Mef 3449; format: functional
Streptococcus pneumoniae [5] = assay: Antibacterial activity against Streptococcus pneumoniae Mef 3855; format: functional
Streptococcus pneumoniae [6] = assay: Antibacterial activity against Streptococcus pneumoniae Mef 4126; format: functional
Streptococcus pneumoniae [7] = assay: Antibacterial activity against Streptococcus pneumoniae Mef 4331; format: functional
Streptococcus pneumoniae [8] = assay: Antibacterial activity against Streptococcus pneumoniae Mef 6966; format: functional
Streptococcus pneumoniae [9] = assay: Antibacterial activity against Streptococcus pneumoniae Mef 9142; format: functional
Streptococcus pneumoniae [10] = assay: Antibacterial activity against Streptococcus pneumoniae Mef 9959; format: functional
Streptococcus pneumoniae [11] = assay: Antibacterial activity against Streptococcus pneumoniae Mef 10095; format: functional
Streptococcus pneumoniae [12] = assay: Antibacterial activity against Streptococcus pneumoniae Erm 6396; format: functional
Streptococcus pneumoniae [13] = assay: Antibacterial activity against Streptococcus pneumoniae Erm 6388; format: functional
Streptococcus pneumoniae [14] = assay: Antibacterial activity against Streptococcus pneumoniae Erm S 4297; format: functional
Streptococcus pneumoniae [15] = assay: Antibacterial activity against Streptococcus pneumoniae Erm S 4085; format: functional
Streptococcus pneumoniae [16] = assay: Antibacterial activity against Streptococcus pneumoniae Erm 867; format: functional
Streptococcus pneumoniae [17] = assay: Antibacterial activity against Streptococcus pneumoniae Erm 2218; format: functional
Streptococcus pneumoniae [18] = assay: Antibacterial activity against Streptococcus pneumoniae Erm 3120; format: functional
Streptococcus pneumoniae [19] = assay: Antibacterial activity against Streptococcus pneumoniae Erm 4290; format: functional
Streptococcus pneumoniae [20] = assay: Antibacterial activity against Streptococcus pneumoniae Erm 4589; format: functional
Streptococcus pneumoniae [21] = assay: Antibacterial activity against Streptococcus pneumoniae Erm 5354; format: functional
Streptococcus pneumoniae [22] = assay: Antibacterial activity against Streptococcus pneumoniae Erm 5399; format: functional
Streptococcus pneumoniae [23] = assay: Antibacterial activity against Streptococcus pneumoniae Erm 5415; format: functional
Streptococcus pneumoniae [24] = assay: Antibacterial activity against Streptococcus pneumoniae Erm 5554; format: functional
Streptococcus pneumoniae [25] = assay: Antibacterial activity against Streptococcus pneumoniae Erm 7985; format: functional
Streptococcus pneumoniae [26] = assay: Antibacterial activity against Streptococcus pneumoniae Erm 8257; format: functional
Streptococcus pneumoniae [27] = assay: Antibacterial activity against Streptococcus pneumoniae Erm 8339; format: functional
Streptococcus pneumoniae [28] = assay: Antibacterial activity against Streptococcus pneumoniae Erm 8919; format: functional
Haemophilus influenzae [29] = assay: Antibacterial activity against Haemophilus influenzae 2762; format: functional
Streptococcus pneumoniae [30] = assay: Antibacterial activity against Streptococcus pneumoniae Erm 8947; format: functional
Streptococcus pneumoniae [31] = assay: Antibacterial activity against Streptococcus pneumoniae Erm 10279; format: functional
Streptococcus pneumoniae [32] = assay: Antibacterial activity against Streptococcus pneumoniae Erm 5590; format: functional
Staphylococcus aureus [33] = assay: Antibacterial activity against Staphylococcus aureus 29213; format: functional
Staphylococcus aureus [34] = assay: Antibacterial activity against Staphylococcus aureus 33591; format: functional
[35] = tested on: Staphylococcus epidermidis; assay: Antibacterial activity against Staphylococcus epidermidis 14990; format: functional
[36] = tested on: Staphylococcus epidermidis; assay: Antibacterial activity against Staphylococcus epidermidis f50654; format: functional
Enterococcus faecalis [37] = assay: Antibacterial activity against Enterococcus faecalis 29212; format: functional
Enterococcus faecalis [38] = assay: Antibacterial activity against Enterococcus faecalis bc11148-2; format: functional
Streptococcus pyogenes = assay: Antibacterial activity against Streptococcus pyogenes 8668; format: functional
Streptococcus pneumoniae [39] = assay: Antibacterial activity against Streptococcus pneumoniae 49619; format: functional
Streptococcus pneumoniae [40] = assay: Antibacterial activity against Streptococcus pneumoniae 297-749; format: functional
Streptococcus pneumoniae [41] = assay: Antibacterial activity against Streptococcus pneumoniae 280-962; format: functional
Streptococcus pneumoniae [42] = assay: Antibacterial activity against Streptococcus pneumoniae Erm 6849; format: functional
Streptococcus pneumoniae [43] = assay: Antibacterial activity against Streptococcus pneumoniae Mef 5654; format: functional
Streptococcus pneumoniae [44] = assay: Antibacterial activity against Streptococcus pneumoniae Mef S 3427; format: functional
Haemophilus influenzae [45] = assay: Antibacterial activity against Haemophilus influenzae 49247; format: functional
[46] = Plasma half life in Sprague-Dawley rat at 5 mg/kg, iv; format: ADME, organism-based; set-up: dose 5 mg/kg, route intravenous
[47] = Plasma half life in Sprague-Dawley rat at 15 mg/kg, po; format: ADME, organism-based; set-up: dose 15 mg/kg, route oral
[48] = Lung half life in Sprague-Dawley rat at 15 mg/kg, po; format: ADME, organism-based; set-up: dose 15 mg/kg, route oral
[49] = Oral bioavailability in Sprague-Dawley rat at 15 mg/kg, po; format: ADME, organism-based; settings: in vivo
[50] = Oral bioavailability in Sprague-Dawley rat at 100 mg/kg, po; format: ADME, organism-based; settings: in vivo
Rattus norvegicus [51] = assay: Efficacy against Streptococcus pneumoniae Erm in Sprague-Dawley rat lung infection model at 100 mg/kg; format: functional, organism-based; set-up: dose 100 mg/kg
Rattus norvegicus [52] = assay: Efficacy against Haemophilus influenzae in Sprague-Dawley rat lung infection model at 100 mg/kg; format: functional, organism-based; set-up: dose 100 mg/kg
Rattus norvegicus [53] = assay: Efficacy against Streptococcus pneumoniae Mef in Sprague-Dawley rat lung infection model at 50 mg/kg; format: functional, organism-based; set-up: dose 50 mg/kg
Rattus norvegicus [54] = assay: Plasma AUC in Sprague-Dawley rat at 5 mg/kg, iv; format: ADME, organism-based; set-up: dose 5 mg/kg, route intravenous; settings: in vivo
[55] = Lung-to-plasma AUC ratio in Sprague-Dawley rat at 5 mg/kg, iv; format: ADME, organism-based; set-up: dose 5 mg/kg, route intravenous; settings: lung and plasma
[56] = Volume of distribution in Sprague-Dawley rat at 5 mg/kg, iv and 15 mg/kg, po; format: ADME, organism-based; settings: in vivo, read-out: Vdss
Streptococcus pneumoniae [57] = assay: Antibacterial activity against Streptococcus pneumoniae Mef 5649; format: functional
Streptococcus pneumoniae [58] = assay: Antibacterial activity against Streptococcus pneumoniae Mef S 3435; format: functional; settings: Streptococcus pneumoniae; read-out: MIC
Streptococcus pneumoniae [59] = assay: Antibacterial activity against Streptococcus pneumoniae Mef 41; format: functional
Streptococcus pneumoniae [60] = assay: Antibacterial activity against Streptococcus pneumoniae Mef 953; format: functional
Streptococcus pneumoniae [61] = assay: Antibacterial activity against Streptococcus pneumoniae Mef 983; format: functional
Streptococcus pneumoniae [62] = assay: Antibacterial activity against Streptococcus pneumoniae Mef 1556; format: functional
Streptococcus pneumoniae [63] = assay: Antibacterial activity against Streptococcus pneumoniae Mef 1566; format: functional

MIC (Streptococcus pneumoniae [1]): 0.1 µg/mL (≈ 0.116 µM)
MIC (Streptococcus pneumoniae [2]): 0.1 µg/mL (≈ 0.116 µM)
MIC (Streptococcus pneumoniae [3]): ≤ 0.05 µg/mL
MIC (Streptococcus pneumoniae [4]): ≤ 0.05 µg/mL
MIC (Streptococcus pneumoniae [5]): ≤ 0.05 µg/mL
MIC (Streptococcus pneumoniae [6]): ≤ 0.05 µg/mL
MIC (Streptococcus pneumoniae [7]): 0.1 µg/mL (≈ 0.116 µM)
MIC (Streptococcus pneumoniae [8]): ≤ 0.05 µg/mL
MIC (Streptococcus pneumoniae [9]): 0.1 µg/mL (≈ 0.116 µM)
MIC (Streptococcus pneumoniae [10]): ≤ 0.05 µg/mL
MIC (Streptococcus pneumoniae [11]): ≤ 0.05 µg/mL
MIC (Streptococcus pneumoniae [12]): 0.05 µg/mL (≈ 0.0582 µM)
MIC (Streptococcus pneumoniae [13]): 0.4 µg/mL (≈ 0.466 µM)
MIC (Streptococcus pneumoniae [14]): 0.025 µg/mL (≈ 0.0291 µM)
MIC (Streptococcus pneumoniae [15]): ≤ 0.013 µg/mL
MIC (Streptococcus pneumoniae [16]): 0.025 µg/mL (≈ 0.0291 µM)
MIC (Streptococcus pneumoniae [17]): 0.025 µg/mL (≈ 0.0291 µM)
MIC (Streptococcus pneumoniae [18]): 0.05 µg/mL (≈ 0.0582 µM)
MIC (Streptococcus pneumoniae [19]): 0.025 µg/mL (≈ 0.0291 µM)
MIC (Streptococcus pneumoniae [20]): 0.025 µg/mL (≈ 0.0291 µM)
MIC (Streptococcus pneumoniae [21]): 0.025 µg/mL (≈ 0.0291 µM)
MIC (Streptococcus pneumoniae [22]): 0.025 µg/mL (≈ 0.0291 µM)
MIC (Streptococcus pneumoniae [23]): 0.025 µg/mL (≈ 0.0291 µM)
MIC (Streptococcus pneumoniae [24]): 0.1 µg/mL (≈ 0.116 µM)
MIC (Streptococcus pneumoniae [25]): ≤ 0.013 µg/mL
MIC (Streptococcus pneumoniae [26]): ≤ 0.013 µg/mL
MIC (Streptococcus pneumoniae [27]): 0.2 µg/mL (≈ 0.233 µM)
MIC (Streptococcus pneumoniae [28]): 0.025 µg/mL (≈ 0.0291 µM)
MIC (Haemophilus influenzae [29]): 0.78 µg/mL (≈ 0.909 µM)
MIC (Streptococcus pneumoniae [30]): 0.05 µg/mL (≈ 0.0582 µM)
MIC (Streptococcus pneumoniae [31]): 0.025 µg/mL (≈ 0.0291 µM)
MIC (Streptococcus pneumoniae [32]): 0.025 µg/mL (≈ 0.0291 µM)
MIC (Staphylococcus aureus [33]): ≤ 0.05 µg/mL
MIC (Staphylococcus aureus [34]): > 50 µg/mL
MIC [35]: ≤ 0.05 µg/mL
MIC [36]: ≤ 0.05 µg/mL
MIC (Enterococcus faecalis [37]): ≤ 0.05 µg/mL
MIC (Enterococcus faecalis [38]): 0.1 µg/mL (≈ 0.116 µM)
MIC (Streptococcus pyogenes): ≤ 0.05 µg/mL
MIC (Streptococcus pneumoniae [39]): ≤ 0.05 µg/mL
MIC (Streptococcus pneumoniae [40]): ≤ 0.05 µg/mL
MIC (Streptococcus pneumoniae [41]): ≤ 0.05 µg/mL
MIC (Streptococcus pneumoniae [42]): 0.05 µg/mL (≈ 0.0582 µM)
MIC (Streptococcus pneumoniae [43]): 0.1 µg/mL (≈ 0.116 µM)
MIC (Streptococcus pneumoniae [44]): ≤ 0.05 µg/mL
MIC (Haemophilus influenzae [45]): 3.13 µg/mL (≈ 3.65 µM)
half-life [46]: 1.3 h
half-life [47]: 1.7 h
half-life [48]: 1.4 h
bioavailability [49]: 26%
bioavailability [50]: 91%
AUC (Rattus norvegicus [54]): 2300 ng·h/mL
Kp [55]: 94
Vd [56]: 12 L/kg
MIC (Streptococcus pneumoniae [57]): ≤ 0.05 µg/mL
MIC (Streptococcus pneumoniae [58]): ≤ 0.05 µg/mL
MIC (Streptococcus pneumoniae [59]): 0.1 µg/mL (≈ 0.116 µM)
MIC (Streptococcus pneumoniae [60]): ≤ 0.05 µg/mL
MIC (Streptococcus pneumoniae [61]): 0.1 µg/mL (≈ 0.116 µM)
MIC (Streptococcus pneumoniae [62]): ≤ 0.05 µg/mL
MIC (Streptococcus pneumoniae [63]): 0.1 µg/mL (≈ 0.116 µM)
Compound: C=C[C@]12OC(=O)N(CCCCn3cnc(-c4ccc(Cl)nc4)c3)[C@@H]1[C@@H](C)C(=O)[C@H](C)C[C@@](C)(OC)[C@H](O[C@@H]1O[C@H](C)C[C@H](N(C)C)[C@H]1O)[C@@H](C)C(=O)[C@@H](C)C(=O)O[C@@H]2CC
Activity (Rattus norvegicus [51]): Active
Activity (Rattus norvegicus [52]): Active
Activity (Rattus norvegicus [53]): Active

Reference: ChEMBL document CHEMBL1138190, “Synthesis and antibacterial activity of novel C12 vinyl ketolides” (J Med Chem, 2006)
